According to US12343326B2, “Psychoactive medicines and their use for treating psychiatric and neurological conditions and disorders” (Transcend Therapeutics, Inc., priority 2021, dated 2025):

How the values were obtained:
Assay in all cases: β-arrestin based GPCR screen (PathHunter / GPCRmax), agonist mode
Type in all cases: cell-based
Design in all cases: host or cells: PathHunter cell lines
168 GPCRs [1] = molecular target: 168 GPCRs (Homo sapiens, UniProt P07550); conditions: ADRB2, Agonist
Method: (§1) For agonist determination, cells were incubated with sample to induce response. […] Vehicle concentration was 1%.

168 GPCRs [2] = molecular target: 168 GPCRs (Homo sapiens, UniProt P18089); conditions: ADRA2B, Agonist
Sequence of 168 GPCRs (Homo sapiens, UniProt P18089) (P18089 whole entry): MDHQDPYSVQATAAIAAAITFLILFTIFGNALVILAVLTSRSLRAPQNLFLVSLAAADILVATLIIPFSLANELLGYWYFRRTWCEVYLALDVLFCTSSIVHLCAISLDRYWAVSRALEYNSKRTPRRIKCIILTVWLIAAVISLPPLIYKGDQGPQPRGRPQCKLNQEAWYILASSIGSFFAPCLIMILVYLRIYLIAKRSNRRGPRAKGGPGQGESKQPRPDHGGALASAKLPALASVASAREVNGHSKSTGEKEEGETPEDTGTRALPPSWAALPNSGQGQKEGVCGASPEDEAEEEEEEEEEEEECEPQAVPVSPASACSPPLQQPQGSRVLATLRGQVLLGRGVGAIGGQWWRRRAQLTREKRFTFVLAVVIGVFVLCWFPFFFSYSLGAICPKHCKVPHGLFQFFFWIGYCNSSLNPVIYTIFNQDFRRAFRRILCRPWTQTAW
Method: as §1

168 GPCRs [3] = molecular target: T1, 168 GPCRs (Homo sapiens, UniProt P24530); conditions: EDNRB
T1 sequence (P24530 27-442): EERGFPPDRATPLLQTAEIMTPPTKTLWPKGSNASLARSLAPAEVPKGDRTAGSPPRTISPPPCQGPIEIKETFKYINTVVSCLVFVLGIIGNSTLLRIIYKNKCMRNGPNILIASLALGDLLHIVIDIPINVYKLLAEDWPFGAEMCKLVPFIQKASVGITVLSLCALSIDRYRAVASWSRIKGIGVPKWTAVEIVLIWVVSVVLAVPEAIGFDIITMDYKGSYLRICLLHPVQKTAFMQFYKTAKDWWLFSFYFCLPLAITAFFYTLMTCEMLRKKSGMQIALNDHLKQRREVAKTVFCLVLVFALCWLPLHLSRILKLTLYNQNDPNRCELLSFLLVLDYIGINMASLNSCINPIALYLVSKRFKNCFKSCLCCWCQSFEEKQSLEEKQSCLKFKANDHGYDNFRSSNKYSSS
Method: as §1

168 GPCRs [4] = molecular target: 168 GPCRs (Homo sapiens, UniProt P25103)
Sequence of 168 GPCRs (Homo sapiens, UniProt P25103) (P25103 whole entry): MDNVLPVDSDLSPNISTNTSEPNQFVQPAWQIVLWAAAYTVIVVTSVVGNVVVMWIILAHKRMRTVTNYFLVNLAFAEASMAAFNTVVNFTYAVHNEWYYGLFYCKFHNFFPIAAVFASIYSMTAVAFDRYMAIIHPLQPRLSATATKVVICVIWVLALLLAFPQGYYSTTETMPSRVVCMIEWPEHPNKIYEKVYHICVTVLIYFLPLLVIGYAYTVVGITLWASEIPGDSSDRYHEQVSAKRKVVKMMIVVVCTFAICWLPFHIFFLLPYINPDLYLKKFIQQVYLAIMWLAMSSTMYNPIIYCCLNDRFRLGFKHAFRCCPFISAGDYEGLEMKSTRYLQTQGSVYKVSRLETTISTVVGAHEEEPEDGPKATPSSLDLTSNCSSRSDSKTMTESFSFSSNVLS
Method: as §1

168 GPCRs [5] = molecular target: 168 GPCRs (Homo sapiens, UniProt P32238); conditions: CCKAR, Agonist
Sequence of 168 GPCRs (Homo sapiens, UniProt P32238) (P32238 whole entry): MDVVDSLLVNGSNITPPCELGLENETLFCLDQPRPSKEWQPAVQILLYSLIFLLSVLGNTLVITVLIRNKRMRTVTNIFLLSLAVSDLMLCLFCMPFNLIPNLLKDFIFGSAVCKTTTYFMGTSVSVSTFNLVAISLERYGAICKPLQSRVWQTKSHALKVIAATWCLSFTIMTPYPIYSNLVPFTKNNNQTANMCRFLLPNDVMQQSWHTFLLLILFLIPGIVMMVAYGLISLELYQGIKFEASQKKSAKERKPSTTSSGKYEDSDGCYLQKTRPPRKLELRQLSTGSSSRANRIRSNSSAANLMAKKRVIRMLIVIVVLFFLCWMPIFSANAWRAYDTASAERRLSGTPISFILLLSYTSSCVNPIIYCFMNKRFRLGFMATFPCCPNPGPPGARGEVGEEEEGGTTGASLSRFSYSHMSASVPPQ
Method: as §1

168 GPCRs [6] = molecular target: T2, 168 GPCRs (Homo sapiens, UniProt P32248); conditions: CCR7, Agonist
T2 sequence (P32248 25-378): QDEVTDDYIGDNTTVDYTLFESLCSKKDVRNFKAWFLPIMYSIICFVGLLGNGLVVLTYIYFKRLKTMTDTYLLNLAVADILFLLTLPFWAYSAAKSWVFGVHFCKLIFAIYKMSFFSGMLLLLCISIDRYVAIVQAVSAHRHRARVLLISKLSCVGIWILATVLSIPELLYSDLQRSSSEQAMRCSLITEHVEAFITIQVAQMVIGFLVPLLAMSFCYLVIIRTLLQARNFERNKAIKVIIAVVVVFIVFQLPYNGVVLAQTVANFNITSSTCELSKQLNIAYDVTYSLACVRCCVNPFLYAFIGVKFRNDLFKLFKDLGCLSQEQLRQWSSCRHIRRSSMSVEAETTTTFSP
Method: as §1

168 GPCRs [7] = molecular target: 168 GPCRs (Homo sapiens, UniProt P33032); conditions: MC5R
Sequence of 168 GPCRs (Homo sapiens, UniProt P33032) (P33032 whole entry): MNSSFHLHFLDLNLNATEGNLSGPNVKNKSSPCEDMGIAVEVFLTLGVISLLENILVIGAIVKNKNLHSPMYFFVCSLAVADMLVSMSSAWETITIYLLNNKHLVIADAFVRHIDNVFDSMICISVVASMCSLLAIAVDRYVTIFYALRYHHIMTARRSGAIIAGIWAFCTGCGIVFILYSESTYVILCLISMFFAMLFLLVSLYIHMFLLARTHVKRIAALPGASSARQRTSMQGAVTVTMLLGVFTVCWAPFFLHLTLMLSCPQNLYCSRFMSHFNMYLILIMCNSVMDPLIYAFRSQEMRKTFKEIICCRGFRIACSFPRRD
Method: as §1

168 GPCRs [8] = molecular target: 168 GPCRs (Homo sapiens, UniProt P41145)
Sequence of 168 GPCRs (Homo sapiens, UniProt P41145) (P41145 whole entry): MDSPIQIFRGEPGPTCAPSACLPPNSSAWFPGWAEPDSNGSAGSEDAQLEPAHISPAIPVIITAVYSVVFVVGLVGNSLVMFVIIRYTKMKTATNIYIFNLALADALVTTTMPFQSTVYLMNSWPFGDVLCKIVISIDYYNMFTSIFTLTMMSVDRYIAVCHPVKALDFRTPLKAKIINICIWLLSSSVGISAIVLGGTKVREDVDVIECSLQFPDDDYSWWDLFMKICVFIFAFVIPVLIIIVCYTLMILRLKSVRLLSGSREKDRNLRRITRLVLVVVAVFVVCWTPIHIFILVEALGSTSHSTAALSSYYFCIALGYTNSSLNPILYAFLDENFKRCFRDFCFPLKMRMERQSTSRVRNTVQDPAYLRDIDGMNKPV
Method: as §1

168 GPCRs [9] = molecular target: 168 GPCRs (Homo sapiens, UniProt P41597); conditions: CCR2, Agonist
Sequence of 168 GPCRs (Homo sapiens, UniProt P41597) (P41597 whole entry): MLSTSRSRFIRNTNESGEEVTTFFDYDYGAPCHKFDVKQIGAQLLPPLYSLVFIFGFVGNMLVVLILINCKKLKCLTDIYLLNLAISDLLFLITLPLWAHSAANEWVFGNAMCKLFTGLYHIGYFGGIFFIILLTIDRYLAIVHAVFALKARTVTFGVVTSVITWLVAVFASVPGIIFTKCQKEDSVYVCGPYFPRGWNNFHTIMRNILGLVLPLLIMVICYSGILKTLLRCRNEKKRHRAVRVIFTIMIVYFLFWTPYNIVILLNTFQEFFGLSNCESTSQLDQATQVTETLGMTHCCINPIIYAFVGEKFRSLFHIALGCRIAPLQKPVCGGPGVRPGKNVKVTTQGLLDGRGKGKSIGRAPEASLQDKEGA
Method: as §1

168 GPCRs [10] = molecular target: 168 GPCRs (Homo sapiens, UniProt P49190)
Sequence of 168 GPCRs (Homo sapiens, UniProt P49190) (P49190 25-550): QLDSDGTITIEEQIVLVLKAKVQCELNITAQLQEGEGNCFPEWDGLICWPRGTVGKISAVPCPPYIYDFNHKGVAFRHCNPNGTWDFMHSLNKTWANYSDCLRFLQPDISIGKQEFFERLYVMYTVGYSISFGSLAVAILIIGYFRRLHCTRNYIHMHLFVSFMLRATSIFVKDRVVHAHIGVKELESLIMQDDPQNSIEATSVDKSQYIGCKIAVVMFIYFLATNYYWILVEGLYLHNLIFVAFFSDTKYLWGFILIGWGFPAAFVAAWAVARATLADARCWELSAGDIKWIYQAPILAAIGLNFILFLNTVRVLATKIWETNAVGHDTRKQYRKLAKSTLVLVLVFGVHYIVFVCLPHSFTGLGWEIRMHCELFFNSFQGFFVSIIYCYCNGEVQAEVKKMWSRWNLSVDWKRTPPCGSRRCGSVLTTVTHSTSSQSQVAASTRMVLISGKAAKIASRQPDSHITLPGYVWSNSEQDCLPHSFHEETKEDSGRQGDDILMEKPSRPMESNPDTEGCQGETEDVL
Method: as §1

168 GPCRs [11] = molecular target: 168 GPCRs (Homo sapiens, UniProt Q969F8); conditions: KISS1R
Sequence of 168 GPCRs (Homo sapiens, UniProt Q969F8) (Q969F8 whole entry): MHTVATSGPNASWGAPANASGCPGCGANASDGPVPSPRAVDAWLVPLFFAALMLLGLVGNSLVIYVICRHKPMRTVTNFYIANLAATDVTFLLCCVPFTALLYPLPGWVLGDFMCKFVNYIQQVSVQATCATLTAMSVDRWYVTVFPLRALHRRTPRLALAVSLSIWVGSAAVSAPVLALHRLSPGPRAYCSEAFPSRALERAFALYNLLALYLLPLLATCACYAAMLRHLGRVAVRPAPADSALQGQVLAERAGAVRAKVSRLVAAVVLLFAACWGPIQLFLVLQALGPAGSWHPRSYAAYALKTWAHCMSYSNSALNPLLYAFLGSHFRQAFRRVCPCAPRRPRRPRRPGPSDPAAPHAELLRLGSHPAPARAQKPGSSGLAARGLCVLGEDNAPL
Method: as §1

168 GPCRs [12] = molecular target: 168 GPCRs (Homo sapiens, UniProt Q96P65)
Sequence of 168 GPCRs (Homo sapiens, UniProt Q96P65) (Q96P65 whole entry): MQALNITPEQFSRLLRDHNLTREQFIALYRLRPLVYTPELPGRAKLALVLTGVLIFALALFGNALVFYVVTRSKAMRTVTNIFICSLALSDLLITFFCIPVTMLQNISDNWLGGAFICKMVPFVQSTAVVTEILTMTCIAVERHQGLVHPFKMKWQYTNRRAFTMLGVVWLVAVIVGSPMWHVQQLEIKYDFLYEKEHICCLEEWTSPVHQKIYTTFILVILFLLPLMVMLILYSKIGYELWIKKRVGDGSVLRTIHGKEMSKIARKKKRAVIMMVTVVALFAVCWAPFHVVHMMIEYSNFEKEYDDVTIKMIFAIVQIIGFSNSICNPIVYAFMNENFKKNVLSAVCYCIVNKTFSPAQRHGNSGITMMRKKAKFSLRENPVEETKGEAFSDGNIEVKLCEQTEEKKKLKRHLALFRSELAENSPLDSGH
Method: as §1

168 GPCRs [13] = molecular target: 168 GPCRs (Homo sapiens, UniProt Q99500)
Sequence of 168 GPCRs (Homo sapiens, UniProt Q99500) (Q99500 whole entry): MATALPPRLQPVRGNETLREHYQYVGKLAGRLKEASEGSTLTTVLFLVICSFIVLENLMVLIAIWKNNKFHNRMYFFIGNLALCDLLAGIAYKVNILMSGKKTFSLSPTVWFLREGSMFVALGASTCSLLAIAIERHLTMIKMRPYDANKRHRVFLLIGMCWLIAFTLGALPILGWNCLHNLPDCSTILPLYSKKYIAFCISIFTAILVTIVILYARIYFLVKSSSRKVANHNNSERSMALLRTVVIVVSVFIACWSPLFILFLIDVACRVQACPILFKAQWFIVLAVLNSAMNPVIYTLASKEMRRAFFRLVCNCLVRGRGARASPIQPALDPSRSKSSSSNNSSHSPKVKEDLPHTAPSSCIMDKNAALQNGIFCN
Method: as §1

168 GPCRs [14] = molecular target: 168 GPCRs (Homo sapiens, UniProt Q99705)
Sequence of 168 GPCRs (Homo sapiens, UniProt Q99705) (Q99705 whole entry): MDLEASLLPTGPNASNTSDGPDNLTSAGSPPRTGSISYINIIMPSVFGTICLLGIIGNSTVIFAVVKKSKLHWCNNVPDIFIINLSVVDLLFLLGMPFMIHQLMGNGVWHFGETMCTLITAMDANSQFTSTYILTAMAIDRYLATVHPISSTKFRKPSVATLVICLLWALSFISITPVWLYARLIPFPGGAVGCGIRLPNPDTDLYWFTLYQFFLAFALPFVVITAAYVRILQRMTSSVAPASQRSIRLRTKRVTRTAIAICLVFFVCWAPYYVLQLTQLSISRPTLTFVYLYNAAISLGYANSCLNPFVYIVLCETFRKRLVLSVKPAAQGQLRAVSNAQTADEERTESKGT
Method: as §1

168 GPCRs [15] = molecular target: T3, 168 GPCRs (Homo sapiens, UniProt Q9Y5Y4)
T3 sequence (Q9Y5Y4 1-395): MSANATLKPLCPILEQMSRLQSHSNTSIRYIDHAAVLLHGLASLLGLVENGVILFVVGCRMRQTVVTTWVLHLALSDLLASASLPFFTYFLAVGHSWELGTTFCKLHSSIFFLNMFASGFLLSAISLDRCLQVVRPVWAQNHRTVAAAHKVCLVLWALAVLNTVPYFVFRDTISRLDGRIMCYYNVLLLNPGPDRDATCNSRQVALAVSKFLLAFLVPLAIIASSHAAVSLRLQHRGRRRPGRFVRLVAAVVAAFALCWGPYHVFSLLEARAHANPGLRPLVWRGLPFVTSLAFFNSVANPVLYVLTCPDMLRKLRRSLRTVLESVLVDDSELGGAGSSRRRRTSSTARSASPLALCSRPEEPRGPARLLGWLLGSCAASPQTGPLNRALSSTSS
Method: as §1

Sequence of 168 GPCRs (Homo sapiens, UniProt P07550) (P07550 whole entry): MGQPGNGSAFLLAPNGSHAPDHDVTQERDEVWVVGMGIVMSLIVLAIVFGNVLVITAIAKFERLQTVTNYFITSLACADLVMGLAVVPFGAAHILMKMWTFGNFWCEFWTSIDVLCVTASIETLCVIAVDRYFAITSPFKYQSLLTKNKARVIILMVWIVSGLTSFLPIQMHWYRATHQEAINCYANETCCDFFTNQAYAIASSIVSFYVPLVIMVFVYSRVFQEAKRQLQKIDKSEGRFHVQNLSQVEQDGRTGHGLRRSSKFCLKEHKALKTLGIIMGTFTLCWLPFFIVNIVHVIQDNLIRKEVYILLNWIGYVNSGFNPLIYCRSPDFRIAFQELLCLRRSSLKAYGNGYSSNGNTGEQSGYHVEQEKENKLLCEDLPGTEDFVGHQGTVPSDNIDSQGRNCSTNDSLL

`CNC(C)C(=O)c1ccc2c(c1)OCO2` (stereo not drawn) [methylone, 3,4-methylenedioxy-N-methylcathinone] was tested, and the activity at 1 µM (168 GPCRs [1]; 1 uM) was 0%, the activity at 10 µM (168 GPCRs [1]; 10 uM) was -0.2% and the activity at 1 µM (168 GPCRs [2]; 1 uM) was -1%. The activity at 10 µM (168 GPCRs [2]; 10 uM) was 1.3%, the activity at 10 µM (168 GPCRs [3]; Agonist mode, 10 uM) was -0.1% and the activity at 1 µM (168 GPCRs [3]; Agonist, 1 uM) was 0.7%. It also gave an activity at 10 µM (168 GPCRs [4]; TACR1, Agonist mode, 10 uM) of -4.4%, an activity at 1 µM (168 GPCRs [4]; TACR1, Agonist, 1 uM) of -3.9% and an activity at 1 µM (168 GPCRs [5]; 1 uM) of 0.1%. It also gave an activity at 10 µM (168 GPCRs [5]; 10 uM) of 0.3%, an activity at 1 µM (168 GPCRs [6]; 1 uM) of -3.4% and an activity at 10 µM (168 GPCRs [6]; 10 uM) of -3.7%. It also gave an activity at 10 µM (168 GPCRs [7]; Agonist mode, 10 uM) of 8.9%, an activity at 1 µM (168 GPCRs [7]; Agonist, 1 uM) of -7.9% and an activity at 10 µM (168 GPCRs [8]; OPRK1, Agonist mode, 10 uM) of -4.1%. For the same compound, the activity at 1 µM (168 GPCRs [8]; OPRK1, Agonist, 1 uM) was -6.3%, the activity at 1 µM (168 GPCRs [9]; 1 uM) was -0.4% and the activity at 10 µM (168 GPCRs [9]; 10 uM) was -0.5%. The activity at 10 µM (168 GPCRs [10]; PTHR2, Agonist mode, 10 uM) was -0.5%, the activity at 1 µM (168 GPCRs [10]; PTHR2, Agonist, 1 uM) was -0.6% and the activity at 10 µM (168 GPCRs [11]; Agonist mode, 10 uM) was -3.7%. The activity at 1 µM (168 GPCRs [11]; Agonist, 1 uM) was -5.5%, the activity at 10 µM (168 GPCRs [12]; GPR103, Agonist mode, 10 uM) was 3.13% and the activity at 1 µM (168 GPCRs [12]; GPR103, Agonist, 1 uM) was 0.8%. It also gave an activity at 10 µM (168 GPCRs [13]; EDG3, Agonist mode, 10 uM) of -8.6%, an activity at 1 µM (168 GPCRs [13]; EDG3, Agonist, 1 uM) of -9.4% and an activity at 10 µM (168 GPCRs [14]; MCHR1, Agonist mode, 10 uM) of 3.1%. For the same compound, the activity at 1 µM (168 GPCRs [14]; MCHR1, Agonist, 1 uM) was 3.9%, the activity at 10 µM (168 GPCRs [15]; CRTH2, Agonist mode, 10 uM) was -5% and the activity at 1 µM (168 GPCRs [15]; CRTH2, Agonist, 1 uM) was -5.7%.
